Results taken from US7781421B2, “Neuroactive 13, 24-cyclo-18, 21-dinorcholanes and structurally related pentacyclic steriods” (Washington University, priority 2003, dated 2010).

Experiments:
[1] = biological target: GABAA receptor ([35S]-TBPS binding site, rat brain cortical membranes); test: Displacement of [35S]-TBPS binding, rat brain cortical membranes; settings: 5 μM GABA, 2 nM [35S]-TBPS; ± standard error of the means
Summary of the method: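 Rat cortical P2 membranes (0.5 mg/mL protein) incubated 2 h at room temperature with 2 nM [35S]-TBPS, 5 μM GABA and steroid (1 nM–10 μM) in 200 mM NaCl/50 mM potassium phosphate, pH 7.4. Filter-bound radioactivity counted; IC50 from Hill equation fit, triplicate points.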

[2] = biological target: T1, rat α1β2γ2 GABAA Receptor (Rattus norvegicus, UniProt P18508+P62813+P63138, INS375LLRMFSFK); test: Xenopus oocyte two-electrode voltage-clamp electrophysiology; type: cell-based; settings: for Oocyte electrophysiology, ratio of currents in presence/absence of compound, 0.1 μM: 0.1 μM compound co-applied with 2 μM GABA; for Oocyte electrophysiology, ratio of currents in presence/absence of compound, 0.1 μM / Oocyte electrophysiology, ratio of currents in presence/absence of compound, 1 μM / Oocyte electrophysiology, ratio of currents in presence/absence of compound, 10 μM: −70 mV; for Oocyte electrophysiology, ratio of currents in presence/absence of compound, 1 μM: 1 μM compound co-applied with 2 μM GABA; for Oocyte electrophysiology, ratio of currents in presence/absence of compound, 10 μM: 10 μM compound co-applied with 2 μM GABA; for Gating (10 μM), ratio of compound only current/2 μM GABA current: direct current gated by 10 μM compound in the absence of GABA
T1 construct: from linearized pBluescript vectors containing receptor coding regions; expressed in transfected cells; host or cells: Xenopus laevis oocytes injected with in vitro transcribed capped mRNA
T1 sequence (P62813 28-455, stated change not applied): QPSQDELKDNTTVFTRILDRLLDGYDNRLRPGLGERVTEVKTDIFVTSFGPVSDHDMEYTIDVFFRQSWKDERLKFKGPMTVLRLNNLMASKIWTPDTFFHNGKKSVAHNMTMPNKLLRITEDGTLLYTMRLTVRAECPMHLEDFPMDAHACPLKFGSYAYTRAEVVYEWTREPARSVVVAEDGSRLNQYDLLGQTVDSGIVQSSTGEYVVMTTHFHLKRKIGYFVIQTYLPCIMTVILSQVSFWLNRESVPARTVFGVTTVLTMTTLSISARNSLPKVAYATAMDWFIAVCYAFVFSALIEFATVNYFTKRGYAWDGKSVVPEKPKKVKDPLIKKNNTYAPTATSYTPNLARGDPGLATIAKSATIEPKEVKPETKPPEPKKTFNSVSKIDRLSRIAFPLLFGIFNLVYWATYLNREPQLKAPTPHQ
T1 sequence (P63138 26-474, stated change not applied): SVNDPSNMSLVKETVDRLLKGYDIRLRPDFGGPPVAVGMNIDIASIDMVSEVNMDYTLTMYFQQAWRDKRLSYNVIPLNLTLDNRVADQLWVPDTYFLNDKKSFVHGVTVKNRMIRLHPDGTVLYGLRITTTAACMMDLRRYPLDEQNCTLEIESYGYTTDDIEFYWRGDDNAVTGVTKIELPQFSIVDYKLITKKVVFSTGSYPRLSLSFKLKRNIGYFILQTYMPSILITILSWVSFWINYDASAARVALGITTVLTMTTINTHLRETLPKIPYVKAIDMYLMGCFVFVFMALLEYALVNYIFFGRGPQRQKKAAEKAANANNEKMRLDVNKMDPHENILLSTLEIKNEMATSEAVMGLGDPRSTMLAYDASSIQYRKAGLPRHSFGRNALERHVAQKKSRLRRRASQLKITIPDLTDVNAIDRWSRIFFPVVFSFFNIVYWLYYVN
T1 sequence (P18508 with tags, fused parts or gaps INS375LLRMFSFK): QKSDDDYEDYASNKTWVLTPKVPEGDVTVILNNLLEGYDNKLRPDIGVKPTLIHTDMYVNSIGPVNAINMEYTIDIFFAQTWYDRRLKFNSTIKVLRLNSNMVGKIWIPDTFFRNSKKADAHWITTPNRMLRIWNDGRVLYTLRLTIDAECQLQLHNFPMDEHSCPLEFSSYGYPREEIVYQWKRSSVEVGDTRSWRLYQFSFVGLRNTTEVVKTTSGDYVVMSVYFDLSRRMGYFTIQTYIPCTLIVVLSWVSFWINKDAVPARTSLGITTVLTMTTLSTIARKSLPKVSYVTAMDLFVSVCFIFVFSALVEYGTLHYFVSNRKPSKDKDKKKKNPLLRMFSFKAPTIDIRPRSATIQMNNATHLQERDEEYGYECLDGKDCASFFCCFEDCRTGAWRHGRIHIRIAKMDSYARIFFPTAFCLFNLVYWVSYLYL
Summary of the method: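 Oocytes injected with rat α1, β2, γ2L mRNA, voltage-clamped at −70 mV 2-5 days later in ND96. Compounds co-applied with 2 μM GABA for 20 s; peak current ratio with/without compound, n≥4 oocytes. (G): current from 10 μM compound alone, as ratio to 2 μM GABA current.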

Xenopus laevis tadpoles = test: Tadpole loss of righting (LRR) and swimming (LSR) reflexes; type: in vivo; settings: 3 h equilibration at room temperature; for EC50: Xenopus laevis, 3 h, read-out: LSR EC50 (loss of swimming response)
Summary of the method: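 Groups of 10 early prelimb-bud Xenopus laevis tadpoles were held for 3 h at room temperature in oxygenated Ringer's containing compound (DMSO ≤0.1%). Loss of righting was scored as failure to right within 5 sec after flipping, and loss of swimming as failure to swim when touched. EC50 came from a Hill equation fit.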

C[C@]12CC[C@@H](O)C[C@@H]1CCC1C3CC[C@@H]4C[C@H](C#N)CC[C@]34CCC12 (stereo partly drawn) [Compound 45, (3α,5α,22R)-3-Hydroxy-13,24-cyclo-18,21-dinorcholane-22-carbonitrile]
IC50 [1]: 44300 ± 21300 nM
Oocyte electrophysiology, ratio of currents in presence/absence of compound, 0.1 μM [2]: 0.90 ± 0.02
Oocyte electrophysiology, ratio of currents in presence/absence of compound, 1 μM [2]: 0.82 ± 0.02
Oocyte electrophysiology, ratio of currents in presence/absence of compound, 10 μM [2]: 0.87 ± 0.01
Gating (10 μM), ratio of compound only current/2 μM GABA current [2]: −0.01 ± 0
LRR ED50 (loss of righting response) (Xenopus laevis tadpoles): >10 µM
LSR EC50 (loss of swimming response) (Xenopus laevis tadpoles): None @ 10
melting point: 244 to 246 °C

C[C@]12CC[C@@H](O)C[C@@H]1CCC1C3CC[C@@H]4CC[C@@H](C#N)C[C@]34CCC12 (stereo partly drawn) [Compound 49, (3α,5α,20R)-3-Hydroxy-13,24-cyclo-18,21-dinorcholane-23-carbonitrile]
IC50 [1]: 574 ± 26 nM
Oocyte electrophysiology, ratio of currents in presence/absence of compound, 10 μM [2]: 1.3 ± 0.1
LRR ED50 (loss of righting response) (Xenopus laevis tadpoles): 0.35 ± 0.09 µM
EC50 (Xenopus laevis tadpoles): > 10 µM
melting point: 182 to 183 °C

C[C@]12CC[C@@H](O)C[C@@H]1CCC1C3CC[C@@H]4CC[C@H](C#N)C[C@]34CCC12 (stereo partly drawn) [Compound 50, (3α,5α,20S)-3-Hydroxy-13,24-cyclo-18,21-dinorcholane-23-carbonitrile]
IC50 [1]: 482 ± 20 nM
Oocyte electrophysiology, ratio of currents in presence/absence of compound, 10 μM [2]: 2.1 ± 0.2
LRR ED50 (loss of righting response) (Xenopus laevis tadpoles): 0.35 ± 0.07 µM
EC50 (Xenopus laevis tadpoles): 0.95 ± 0.01 µM
melting point: 157 to 159 °C

C=C1CCC[C@]23CCC4C(CC[C@H]5C[C@H](O)CC[C@]45C)C2CC[C@H]13 (stereo partly drawn) [Compound 51, (3α,5α)-20-Methylene-13,24-cyclo-18,21-dinorcholan-3-ol]
IC50 [1]: 181 ± 9 nM
Oocyte electrophysiology, ratio of currents in presence/absence of compound, 0.1 μM [2]: 0.90 ± 0.15
Oocyte electrophysiology, ratio of currents in presence/absence of compound, 1 μM [2]: 0.93 ± 0.08
Oocyte electrophysiology, ratio of currents in presence/absence of compound, 10 μM [2]: 0.95 ± 0.05
Gating (10 μM), ratio of compound only current/2 μM GABA current [2]: −0.06 ± 0.06
LRR ED50 (loss of righting response) (Xenopus laevis tadpoles): >10 µM
LSR EC50 (loss of swimming response) (Xenopus laevis tadpoles): None @ 10
melting point: 211 to 213 °C

C=C1CCC[C@]23CCC4C(CC[C@@H]5C[C@H](O)CC[C@]45C)C2CC[C@H]13 (stereo partly drawn) [Compound 52, (3α,5α)-20-Methylene-13,24-cyclo-18,21-dinorcholan-3-ol]
IC50 [1]: 213 ± 21 nM
Oocyte electrophysiology, ratio of currents in presence/absence of compound, 0.1 μM [2]: 1.57 ± 0.16
Oocyte electrophysiology, ratio of currents in presence/absence of compound, 1 μM [2]: 3.47 ± 0.50
Oocyte electrophysiology, ratio of currents in presence/absence of compound, 10 μM [2]: 6.22 ± 0.92
Gating (10 μM), ratio of compound only current/2 μM GABA current [2]: −0.02 ± 0.02
LRR ED50 (loss of righting response) (Xenopus laevis tadpoles): 4.88 ± 1.12 µM
EC50 (Xenopus laevis tadpoles): > 10 µM
melting point: 131 to 133 °C

C[C@]12CC[C@@H](O)C[C@@H]1CCC1C3CC[C@@H]4C(C#N)=CCC[C@]34CCC12 (stereo partly drawn) [Compound 57, (3α,5α)-3-Hydroxy-13,24-cyclo-18,21-dinorchol-20(22)-ene-20-carbonitrile]
IC50 [1]: 433 ± 30 nM
Oocyte electrophysiology, ratio of currents in presence/absence of compound, 0.1 μM [2]: 0.91 ± 0.03
Oocyte electrophysiology, ratio of currents in presence/absence of compound, 1 μM [2]: 0.96 ± 0.04
Oocyte electrophysiology, ratio of currents in presence/absence of compound, 10 μM [2]: 3.18 ± 0.24
Gating (10 μM), ratio of compound only current/2 μM GABA current [2]: 0.01 ± 0.02
LRR ED50 (loss of righting response) (Xenopus laevis tadpoles): 0.42 µM
LSR EC50 (loss of swimming response) (Xenopus laevis tadpoles): None @ 10
melting point: 193 to 195 °C

C[C@]12CC[C@@H](O)C[C@@H]1CCC1C3CC[C@@H]4C=CC=C[C@]34CCC12 (stereo partly drawn) [Compound 60, (3α,5α)-13,24-Cyclo-18,21-dinorchol-20(22),23-dien-3-ol]
IC50 [1]: 467 ± 26 nM
Oocyte electrophysiology, ratio of currents in presence/absence of compound, 10 μM [2]: 1.1 ± 0.1
LRR ED50 (loss of righting response) (Xenopus laevis tadpoles): 2.70 ± 0.72 µM
EC50 (Xenopus laevis tadpoles): > 10 µM
melting point: 136 to 138 °C
